# According to patent publication US20220280594A1, “APPLICATION OF POLYPEPTIDE OR DERIVATIVE THEREOF” (CHENGDU HUITAI BIOMEDICINE CO., LTD., priority 2019, published 2022):
# Ends that are not written are not given here. PEG = not defined here
# Columns and labels:
# [1] = tested on: human lung cancer cells (A549) subcutaneous xenograft; experiment: lung cancer subcutaneous xenograft animal model, intratumoral injection; assay type: in vivo, mice (BALB/c-nu/nu); settings: intratumoral 5 mg/kg once every other day, 10 days; for Weight of tumor (g) (mean ± SD): control 1.45 ± 0.15; for Volume of tumor (mm^3) (mean ± SD): control 1269.32 ± 115.39
# Protocol: (§1) Experimental animals: 4-6 weeks old female immunodeficiency mice (BALB/c-nu/nu, Beijing Vital River Laboratory Animal Technology Co., Ltd.).
# (§2) Subcutaneous xenograft animal model. The number of cells inoculated subcutaneously vin mice was about 2×10^6/200 μL. When the volume of the subcutaneous tumor was greater than 100 mm^3, the mice were randomly divided into groups and subjected to treatment. When the mass volume of the tumors in model control group reached 2000 mm^3 or the animal dies, the treatment ended. The animals were dissected, the tumors were taken out, and the weight and volume of the tumors were measured. During the period of the entire experiment, the mice were observed and the body weight was measured every other day.
# The method used for the drug efficacy test in the animal model of the subcutaneous xenograft derived from lung cancer cells was as described in Example 5. The tumor cells were human lung cancer cells (A549), and the route of administration was intratumoral injection. There were two groups: the model control group and the polypeptide or its derivative treatment group (N1-N12). The drug dosage of the treatment group was 5 mg/kg, once every other day and the treatment time was 10 days.
# The procedure of the efficacy test in this example, route and dosage of administration were the same as in Example 9. The peptides used in the experiment were N13-N32. The treatment time was 20 days.
# [2] = tested on: human pancreatic cancer cells (PANC-1) subcutaneous xenograft; experiment: pancreatic cancer subcutaneous xenograft animal model, intratumoral injection; assay type: in vivo, mice (BALB/c-nu/nu); settings: PANC-1 xenograft, intratumoral 5 mg/kg once every other day, 25 days; for Weight of tumor (g) (mean ± SD): control 1.2 ± 0.11; for Volume of tumor (mm^3) (mean ± SD): control 1431.72 ± 174.33
# Protocol: as §1, §2
# The method used in the efficacy test on the pancreatic cancer subcutaneous xenograft animal model was as described in Example 5. The pancreatic cancer cells were human pancreatic cancer cells (PANC-1), and the route of administration was intratumoral injection. The experimental groups were model control group and polypeptide or derivative thereof treatment groups (N1-N12). The drug dosage of the N1-N12 treatment group was 5mg/kg, once every other day, and the treatment time was 25 days.
# fibronectin = fibronectin expression in SK-HEP-1 cells (ELISA); assay type: cell-based, human; settings: SK-HEP-1, 10 μM, 24 hours, control group 1.62 ± 0.09
# Protocol: (§3) SK-HEP-1 cells were cultured in vitro, cells in the logarithmic growth phase were collected, and the cells were seeded evenly in a 24-well plate at a density of 1-3×10^5 cells/well. The cells were cultured in a cell incubator for 4-5 h. PBS was added to the control group. PBS containing polypeptide or derivative thereof (N1-N12) was added to the treatment group. The final concentration of the polypeptide or derivative thereof in the well was 10 μM. After incubating for 24 hours, the cells were collected and the total protein was extracted. ELISA was used to detect the content of fibronectin in total protein.
# N-cadherin = N-cadherin expression in SK-HEP-1 cells (ELISA); assay type: cell-based, human; settings: SK-HEP-1, 10 μM, 24 hours, control group 1.12 ± 0.03
# Protocol: as §3
# The experimental method for testing the inhibition on the expression of N-cadherin in human liver adenocarcinoma cells (SK-HEP-1) by the polypeptide or derivative thereof (N1-N12) was as described in Example 19.
# vimentin = vimentin expression in SK-HEP-1 cells (ELISA); assay type: cell-based, human; settings: SK-HEP-1, 10 μM, 24 hours, control group 1.2 ± 0.01
# Protocol: as §3
# The experimental method for testing the inhibition on the expression of vimentin in human liver adenocarcinoma cells (SK-HEP-1) by the polypeptide or derivative thereof (N1-N12) was as described in Example 19.
# [3] = effect on coagulation function in mice (ACT); assay type: in vivo, C57BL/6J mice; settings: 200 mg/kg tail vein once a day until Day 24, blood on Day 25; control group 73.50 ± 7.15
# Protocol: C57BL/6J mice were used as experimental subjects (purchased from Chengdu Dashuo Experimental Animal Co., Ltd., male, weighing 16-17 g). Sterile saline or peptide drugs were injected via the tail vein once a day until Day 24. The mice in the control group were injected with sterile saline, and the mice in the administration groups (N1-N12) were injected with polypeptide drugs (200 mg/kg). There were three experimental animals in each group. On Day 25, the eyeballs were removed and blood ([…]) was taken. The coagulation function of the mice was detected by the Abbott i-STAT blood gas analyzer with the ACT test card.
Substance,Weight of tumor (g) (mean ± SD) [1],Volume of tumor (mm^3) (mean ± SD) [1],Weight of tumor (g) (mean ± SD) [2],Volume of tumor (mm^3) (mean ± SD) [2],"Relative protein level (mean ± SD, P), fibronectin (fibronectin)","Relative protein level (mean ± SD, P), N-cadherin (N-cadherin)","Relative protein level (mean ± SD, P), vimentin (vimentin)",Activated clotting time (s) (mean ± SD) [3]
N2: SEQ ID NO: 1 with deletion of one amino acid (position 18) at the carboxyl terminal (YRVRFLAKENVTQDAED),0.86 ± 0.13 g,809.89 ± 129.93 mm^3,0.72 ± 0.12 g,761.37 ± 150.52 mm^3,"1.23 ± 0.08,**","0.93 ± 0.04,**","0.91 ± 0.03, ****",74.82 ± 9.62 s
N3: SEQ ID NO: 1 with deletion of position 18 and PEG modification at the amino terminal ({PEG}-YRVRFLAKENVTQDAED; reading uncertain),0.79 ± 0.18 g,712.59 ± 200.32 mm^3,0.6 ± 0.1 g,695.11 ± 111.9 mm^3,"1.26 ± 0.09,**","0.87 ± 0.09,*","0.96 ± 0.05, **",72.55 ± 8.27 s
N4: SEQ ID NO: 1 with deletion of positions 15-18 and positions 1-3 (RFLAKENVTQD),0.63 ± 0.12 g,740.79 ± 140.87 mm^3,0.62 ± 0.07 g,673.03 ± 157.33 mm^3,"1.23 ± 0.11,**","0.93 ± 0.04,**","0.95 ± 0.03, ***",73.64 ± 8.12 s
N5: SEQ ID NO: 1 with addition of one amino acid at the carboxyl terminal and deletion of positions 1-3 (RFLAKENVTQDAEDNC),0.69 ± 0.14 g,738.11 ± 167.03 mm^3,0.54 ± 0.1 g,696.52 ± 127.05 mm^3,"1.3 ± 0.11,*","0.83 ± 0.04,***","0.87 ± 0.03, ****",72.91 ± 8.04 s
N6: SEQ ID NO: 1 with deletion of four amino acids at the carboxyl terminal (positions 15-18) (YRVRFLAKENVTQD),0.79 ± 0.18 g,769.35 ± 155.34 mm^3,0.61 ± 0.07 g,538.26 ± 121.04 mm^3,"1.33 ± 0.04,**","0.83 ± 0.04,***","0.81 ± 0.03, ****",74.09 ± 8.51 s
N7: SEQ ID NO: 1 with addition of one amino acid at the carboxyl terminal and substitution A15R (YRVRFLAKENVTQDREDNC),0.81 ± 0.16 g,741.86 ± 147.66 mm^3,0.74 ± 0.09 g,671.47 ± 150.71 mm^3,"1.36 ± 0.04,*","0.73 ± 0.06,***","1 ± 0.03, ***",73.27 ± 8.43 s
"N8: SEQ ID NO: 1 with deletion of positions 15-18 and positions 3, 4 and 11 (YRFLAKENTQD)",0.68 ± 0.11 g,783.99 ± 69.19 mm^3,0.59 ± 0.11 g,769.54 ± 160.54 mm^3,"1.33 ± 0.11,*","0.7 ± 0.06,***","0.81 ± 0.03, ****",74 ± 8.92 s
N9: SEQ ID NO: 1 with deletion of positions 15-18 and PEG modification at the amino terminal ({PEG}-YRVRFLAKENVTQD; reading uncertain),0.72 ± 0.09 g,781.14 ± 123.66 mm^3,0.5 ± 0.09 g,765.6 ± 105.04 mm^3,"1.33 ± 0.09,*","0.73 ± 0.04,***","1.03 ± 0.05, **",72.09 ± 8.07 s
N10: SEQ ID NO: 1 with deletion of positions 15-18 and 1-3 and PEG modification at the carboxyl terminal (RFLAKENVTQD-{PEG}; reading uncertain),0.75 ± 0.07 g,705.83 ± 182.18 mm^3,0.57 ± 0.11 g,667.99 ± 188.73 mm^3,"1.3 ± 0.05,**","0.69 ± 0.03,****","0.88 ± 0.06, ***",73.27 ± 7.36 s
N11: SEQ ID NO: 1 with deletion of positions 15-18 and 1-3 and PEG modification at the amino terminal ({PEG}-RFLAKENVTQD; reading uncertain),0.73 ± 0.08 g,756.57 ± 204.03 mm^3,0.62 ± 0.12 g,785.02 ± 147.38 mm^3,"1.39 ± 0.01,*","0.73 ± 0.04,***","0.94 ± 0.05, ***",75.18 ± 7.99 s
